From the supplement of paper PMC10307832

Legend:
Experiment in all cases: relative viability (nuclei count vs DMSO), 5 days (fraction); higher = more cells survive
[1] = compound: CC1(C)CNc2cc(NC(=O)c3cccnc3NCc3ccncc3)ccc21 [Motesanib] + CC1(C)CCC(c2ccc(Cl)cc2)=C(CN2CCN(c3ccc(C(=O)NS(=O)(=O)c4ccc(N[C@H](CCN5CCOCC5)CSc5ccccc5)c(S(=O)(=O)C(F)(F)F)c4)cc3)CC2)C1 [Navitoclax] (partner 0.5 µM)
Procedure, shortened: (§1)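 Lung cancer cell lines were seeded in 1536-well plates and dosed by pin tool the next day, with either a single drug or a fixed anchor-drug dose combined with five library-drug doses (not always all listed) spaced in √10 steps. Five days later, one step fixed the cells and stained their nuclei (final 0.05% Triton X-100, 1% formaldehyde, 1 ug/ml Hoechst), and nuclei were counted on 4× images. Relative viability is the nuclei count in treated wells divided by the count in vehicle wells, and each value is the median of duplicate plates.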

[2] = compound: C[C@@]1(C(=O)Nc2ccc(F)nc2)CCCN1c1nc(Nc2cc(C3CC3)n[nH]2)c2cccn2n1 + N=C(N)NC(=N)NCCc1ccccc1 [Phenformin] (partner 250 µM)
Procedure, shortened: as §1

[3] = compound: C[C@@]1(C(=O)Nc2ccc(F)nc2)CCCN1c1nc(Nc2cc(C3CC3)n[nH]2)c2cccn2n1
Procedure, shortened: (§2)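 Vehicle-anchored 1536-well plates of lung cancer cell lines, held overnight at 37 °C, were pinned with five library-drug doses (not always all listed) spaced by √10. No medium change followed over the next 5 days, after which the cells were fixed, permeabilised and Hoechst-stained together and imaged at 4×. Nuclei were counted with MetaXpress, and viability is treated-well nuclei over vehicle-well nuclei, taken as a median across plates. Plates passed with control CV below 25% and at least one doubling.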

[4] = compound: CC1(C)CNc2cc(NC(=O)c3cccnc3NCc3ccncc3)ccc21 [Motesanib]
Procedure, shortened: as §2

Row | Cell Line | relative viability ([1]; first compound 0.01 µM) | relative viability ([1]; first compound 0.03162 µM) | relative viability ([1]; first compound 0.1 µM) | relative viability ([1]; first compound 0.3162 µM) | relative viability ([1]; first compound 1 µM) | relative viability ([2]; first compound 0.04 µM) | relative viability ([2]; first compound 0.1265 µM) | relative viability ([2]; first compound 0.4 µM) | relative viability ([2]; first compound 1.265 µM) | relative viability ([3]; 0.04 µM) | relative viability ([3]; 0.1265 µM) | relative viability ([3]; 0.4 µM) | relative viability ([3]; 1.265 µM) | relative viability ([4]; 0.01 µM) | relative viability ([4]; 0.03162 µM) | relative viability ([4]; 0.1 µM) | relative viability ([4]; 0.3162 µM) | relative viability ([4]; 1 µM)
1 | CAL-12T | 1.34 | 1.47 | 1.3 | 1.24 | 1.28 | 0.575 | 0.507 | 0.464 | 0.207 | 1.03 | 0.863 | 0.884 | 0.664 | 0.951 | 0.975 | 0.967 | 1.05 | 0.965
2 | RERF-LC-KJ | 0.705 | 1.01 | 1.29 | 0.811 | 0.877 | 0.315 | 0.348 | 0.322 | 0.273 | 0.937 | 0.797 | 0.828 | 0.838 | 0.899 | 0.981 | 1 | 0.952 | 1.01
3 | NCI-H1650 | 1.19 | – | 1.17 | 1.44 | 1.23 | 0.411 | 0.387 | 0.376 | 0.193 | 0.894 | 0.843 | 0.798 | 0.699 | 1.03 | 0.792 | 1.06 | 0.947 | 0.927
4 | BEN | 0.0507 | 0.0585 | 0.0627 | 0.0938 | 0.0672 | 0.291 | 0.229 | 0.272 | 0.281 | 1.09 | 0.959 | 0.935 | 0.929 | 0.902 | 0.964 | 0.927 | 0.998 | 1.19
5 | EMC-BAC-2 | 1.18 | 1.15 | 1.22 | 1.19 | 1.13 | 0.472 | 0.437 | 0.399 | 0.313 | 0.848 | 0.766 | 0.642 | 0.593 | 0.964 | 1.01 | 0.987 | 1.05 | 0.95
6 | LU99A | 0.82 | 0.849 | 0.75 | 0.798 | 0.835 | 0.773 | 0.621 | 0.586 | 0.52 | 0.72 | 0.645 | 0.6 | 0.381 | 0.911 | 1.03 | 0.905 | 1.02 | 0.98
7 | ABC-1 | – | – | – | – | – | 0.182 | 0.211 | 0.216 | 0.216 | 0.884 | 0.738 | 0.51 | 0.507 | 0.919 | 0.938 | 0.863 | 1.09 | 0.97
8 | NCI-H1299 | 1.06 | 1.04 | 1.06 | 1.11 | 1.07 | – | – | – | – | 1.05 | 0.954 | 1.02 | 1.04 | 1.01 | 0.999 | 1.04 | 1.02 | 1.05
9 | EBC-1 | 0.48 | 0.419 | 0.377 | 0.47 | 0.417 | – | – | – | – | 1.01 | 0.772 | 0.769 | 0.664 | 1.01 | 0.927 | 1.01 | 1.03 | 0.954
10 | NCI-H1648 | – | – | – | – | – | – | – | – | – | 0.837 | 0.57 | 0.499 | 0.636 | 0.744 | 0.658 | 0.71 | 1.1 | 0.556
11 | NCI-H650 | – | – | – | – | – | 0.452 | 0.405 | 0.406 | 0.316 | 0.841 | 0.649 | 0.784 | 0.585 | 0.976 | 1.04 | 0.992 | 1.07 | 0.907
12 | NCI-H358 | – | – | – | – | – | 0.212 | 0.144 | 0.113 | 0.115 | 0.752 | 0.46 | 0.237 | 0.326 | 0.973 | 0.948 | 0.959 | 1.16 | 1.2
13 | NCI-H1563 | – | – | – | – | – | 0.64 | 0.671 | 0.605 | 0.626 | 1.04 | 0.918 | 0.805 | 0.934 | 1.04 | 0.973 | 1.09 | 0.953 | 0.994
14 | NCI-H522 | – | – | – | – | – | 0.557 | 0.633 | 0.59 | 0.56 | 0.925 | 0.836 | 0.754 | 0.878 | 0.939 | 1.01 | 1.06 | 1.06 | 1.07
15 | IA-LM | 0.803 | 0.827 | 0.737 | 0.673 | 0.631 | – | – | – | – | 1.05 | 1 | 0.863 | 0.861 | 0.927 | 1.03 | 0.957 | 1.04 | 0.941
16 | NCI-H1703 | 1.25 | 1.05 | 0.494 | 0.299 | 0.27 | – | – | – | – | 0.97 | 0.807 | 0.716 | 0.778 | 0.911 | 0.901 | 0.52 | 0.286 | 0.236
17 | LCLC-103H | – | – | – | – | – | 0.343 | 0.309 | 0.253 | 0.28 | 0.896 | 0.922 | 0.799 | 0.885 | 0.914 | 0.958 | 0.974 | 1.02 | 1.06
18 | SW 900 | – | – | – | – | – | 0.566 | 0.544 | 0.596 | 0.461 | 0.746 | 0.727 | 0.81 | 0.673 | 0.834 | 0.782 | 0.809 | 0.9 | 0.799
